Test results: US20230115176A1 (Ra Pharmaceuticals, Inc., priority 2019, published 2023)
Where two headings read alike, the source gives them in different places.

Key:
Human C5 = molecular target: T1, Human C5 (Homo sapiens, UniProt P01031); assay: Surface plasmon resonance (SPR), immobilized human C5 (Example 9, Table 18); assay type: binding
T1 construct: purchased Complement Technology
From the text: Morrison and Boyd in “Organic Chemistry”, 6th edition, Prentice Hall (1992)] and validated for proper structure by mass spectrometry.

purified human C5 = purified human C5 (Homo sapiens, UniProt P01031); assay: Red blood cell (RBC) hemolysis assay, optical, absorbance 412 nm (Example 10, Table 19); assay type: cell-based; conditions: antibody-sensitized sheep erythrocytes, […] human C5 depleted sera
[1] = immobilized human C5, equilibrium dissociation constant, read-out: SPR C5 EQ KD
[2] = 0.5 nM purified human C5, absorbance 412 nm, read-out: RBC Hemolysis IC50
[3] = SPR, human C5 immobilized, read-out: equilibrium dissociation constant for interaction with C5
[4] = 0.5 nM human C5, read-out: IC50

T1 sequence (P01031 19-1676): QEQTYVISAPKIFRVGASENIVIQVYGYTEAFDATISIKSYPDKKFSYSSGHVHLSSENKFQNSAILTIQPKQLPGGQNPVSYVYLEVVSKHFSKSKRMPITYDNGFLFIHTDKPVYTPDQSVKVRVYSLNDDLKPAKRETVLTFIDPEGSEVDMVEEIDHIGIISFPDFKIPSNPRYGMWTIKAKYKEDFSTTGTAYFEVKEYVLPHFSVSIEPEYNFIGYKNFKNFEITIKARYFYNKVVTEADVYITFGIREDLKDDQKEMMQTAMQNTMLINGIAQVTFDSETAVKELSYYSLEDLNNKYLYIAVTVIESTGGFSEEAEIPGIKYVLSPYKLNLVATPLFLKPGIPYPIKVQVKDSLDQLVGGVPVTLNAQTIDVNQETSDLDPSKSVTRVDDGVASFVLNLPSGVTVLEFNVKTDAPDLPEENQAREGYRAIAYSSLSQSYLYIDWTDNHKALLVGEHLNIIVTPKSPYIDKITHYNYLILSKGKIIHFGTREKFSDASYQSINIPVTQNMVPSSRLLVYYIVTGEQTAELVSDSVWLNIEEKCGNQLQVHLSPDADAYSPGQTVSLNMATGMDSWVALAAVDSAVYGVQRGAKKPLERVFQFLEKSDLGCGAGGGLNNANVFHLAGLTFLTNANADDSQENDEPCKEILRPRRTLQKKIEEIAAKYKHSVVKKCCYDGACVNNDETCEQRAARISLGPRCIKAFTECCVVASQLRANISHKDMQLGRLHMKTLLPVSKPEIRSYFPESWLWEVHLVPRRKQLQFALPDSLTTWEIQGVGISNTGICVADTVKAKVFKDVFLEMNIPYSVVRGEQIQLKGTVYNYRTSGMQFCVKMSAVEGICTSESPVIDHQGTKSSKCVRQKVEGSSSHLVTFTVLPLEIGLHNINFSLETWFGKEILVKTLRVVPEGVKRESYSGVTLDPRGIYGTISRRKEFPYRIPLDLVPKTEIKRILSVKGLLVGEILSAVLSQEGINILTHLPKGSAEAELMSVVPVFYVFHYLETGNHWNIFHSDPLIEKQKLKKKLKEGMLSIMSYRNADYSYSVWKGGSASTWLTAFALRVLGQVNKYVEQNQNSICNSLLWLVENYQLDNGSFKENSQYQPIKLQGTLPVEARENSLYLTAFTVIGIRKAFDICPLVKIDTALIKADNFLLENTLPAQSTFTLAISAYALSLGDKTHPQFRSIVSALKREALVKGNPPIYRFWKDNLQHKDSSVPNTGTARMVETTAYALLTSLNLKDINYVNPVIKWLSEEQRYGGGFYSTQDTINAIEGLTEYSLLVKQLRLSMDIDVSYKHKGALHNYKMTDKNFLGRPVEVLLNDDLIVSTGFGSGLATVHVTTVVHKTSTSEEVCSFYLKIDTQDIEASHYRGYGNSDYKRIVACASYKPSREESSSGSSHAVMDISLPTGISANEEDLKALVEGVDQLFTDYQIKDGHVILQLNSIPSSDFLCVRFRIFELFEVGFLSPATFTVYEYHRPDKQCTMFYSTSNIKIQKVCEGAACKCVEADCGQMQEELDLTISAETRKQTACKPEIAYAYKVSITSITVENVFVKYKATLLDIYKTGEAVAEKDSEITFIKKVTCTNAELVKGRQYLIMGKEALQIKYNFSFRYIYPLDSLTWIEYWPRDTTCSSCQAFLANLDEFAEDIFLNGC
Sequence of purified human C5 (P01031 19-1676): as above

Row | Compound | Kd (Human C5; [1]) [nM] | IC50 (purified human C5; [2]) [nM] | Kd (Human C5; [3]) [nM] | IC50 (purified human C5; [4]) [nM]
1 | COc1ccc(NC(=O)NCc2ccccc2N)cc1OCCCC(C)C [Compound C5INH-0343] | 800 | 3040 |  | 
2 | COc1ccc(CNC(=O)Nc2ccc(OC)c(OCCCC(C)C)c2)c(OC)c1 [Compound C5INH-0348] | 10.2 | 72.5 | < 20 | 
3 | COc1ccc(NC(=O)N[C@@H](CO)c2ccccc2)cc1OCCc1cccs1 [Compound C5INH-0349] | 1210 | 1500 |  | 
4 | COc1ccc(NC(=O)N[C@@H](CO)c2ccccc2)cc1OCCC1CCCCC1 [Compound C5INH-0350] | 160 | 653 |  | 
5 | COc1ccc(C(CO)NC(=O)Nc2ccc(OC)c(OCCCC(C)C)c2)cc1OC (centres unmarked) [Compound C5INH-0352] | 700 | 2950 |  | 
6 | COc1ccc(NC(=O)NC(CO)c2ccc3[nH]ccc3c2)cc1OCCCC(C)C (centres unmarked) [Compound C5INH-0353] | 580 | 328 |  | 
7 | COc1cc(CC(=O)O)c(NC(=O)N[C@H](CO)c2ccccc2)cc1OCCCC(C)C [Compound C5INH-0355] | 441 | 2930 |  | 
8 | COc1ccc(NC(=O)NC(CO)c2cccc3[nH]ccc23)cc1OCCCC(C)C (centres unmarked) [Compound C5INH-0356] | 59 | 111 |  | 
9 | COc1ccc(NC(=O)NCc2ccnc3c2ccn3C)cc1OCCCC(C)C [Compound C5INH-0361] | 52 | 2350 |  | 
10 | COc1ccc(NC(=O)NC(CO)c2cccc3[nH]ncc23)cc1OCCCC(C)C (centres unmarked) [Compound C5INH-0366] | 82 | 762 |  | 
11 | COc1ccc(NC(=O)N[C@@H](CO)c2ccccc2)cc1C(O)CCCC(C)C (some centres unmarked) [Compound C5INH-0367] | 102 | 475 |  | 
12 | COc1ccc(NC(=O)NCc2cccc(N3CCN(C)CC3)c2)cc1OCCCC(C)C [Compound C5INH-0369] | 104 | 592 |  | 
13 | COc1ccc(NC(=O)NC(CO)c2cccc(CNC(=O)OC(C)(C)C)c2)cc1OCCCC(C)C (centres unmarked) [Compound C5INH-0372] | 670 | 3270 |  | 
14 | COc1ccc(NC(=O)NC(CO)c2cccc(CN)c2)cc1OCCCC(C)C (centres unmarked) [Compound C5INH-0373] | 293 | 1520 |  | 
15 | COc1ccc(NC(=O)NCc2ccnc3c2ccn3CCN2CCCC2)cc1OCCCC(C)C [Compound C5INH-0377] | 47 | 156 |  | 
16 | COc1ccc(NC(=O)NC(CO)c2cccc(CNCCN3CCOCC3)c2)cc1OCCCC(C)C (centres unmarked) [Compound C5INH-0379] | 499 | 3630 |  | 
17 | COCCOc1cc(CNC(=O)Nc2ccc(OC)c(OCCCC(C)C)c2)ccn1 [Compound C5INH-0381] | 120 | 1040 |  | 
18 | COc1ccc(NC(=O)NCc2ccnc(OCCN)c2)cc1OCCCC(C)C [Compound C5INH-0382] | 181 | 312 |  | 
19 | COc1ccc(NC(=O)NCc2ccnc(OCCN(C)C)c2)cc1OCCCC(C)C [Compound C5INH-0383] | 102 | 293 |  | 
20 | COCCOCCOc1cc(CNC(=O)Nc2ccc(OC)c(OCCCC(C)C)c2)ccn1 [Compound C5INH-0384] | 810 | 2180 |  | 
21 | COc1ccc(NC(=O)N2CCc3ccc(O)cc3C2)cc1OCCCC(C)C [Compound C5INH-0385] | 190 | 1280 |  | 

Row | Compound | Kd (Human C5; [1]) [nM] | IC50 (purified human C5; [2]) [nM] | Kd (Human C5; [3]) [nM] | IC50 (purified human C5; [4]) [nM]
22 | COc1ccc(C2CCCN2C(=O)Nc2ccc(OC)c(OCCCC(C)C)c2)cc1 (centres unmarked) [Compound C5INH-0387] | 320 | 577 |  | 
23 | COc1cccc(C2CCCN2C(=O)Nc2ccc(OC)c(OCCCC(C)C)c2)c1 (centres unmarked) [Compound C5INH-0388] | 970 | 970 |  | 
24 | COc1ccc(NC(=O)NCc2ccnc(NCCN(C)C)c2)cc1OCCCC(C)C [Compound C5INH-0389] | 420 | 1310 |  | 
25 | COCCNc1cc(CNC(=O)Nc2ccc(OC)c(OCCCC(C)C)c2)ccn1 [Compound C5INH-0390] | 257 | 698 |  | 
26 | COc1ccc(NC(=O)N[C@@H](CO)c2ccccc2O)cc1OCCCC(C)C [Compound C5INH-0395] | 9 | 13.6 | < 20 | < 20
27 | COc1ccc(NC(=O)N2CCCC2c2ccc(N(C)C)cc2)cc1OCCCC(C)C (centres unmarked) [Compound C5INH-0396] | 1400 | 2330 |  | 
28 | COC(=O)c1cc(OC)c(OCCCC(C)C)cc1NC(=O)N[C@@H](CO)c1ccccc1 [Compound C5INH-0397] | 2060 | 1380 |  | 
29 | COC(=O)CCn1ccc2c(CNC(=O)Nc3ccc(OC)c(OCCCC(C)C)c3)ccnc21 [Compound C5INH-0398] | 89 | 329 |  | 
30 | COc1cnccc1CNC(=O)Nc1ccc(OC)c(OCCCC(C)C)c1 [Compound C5INH-0401] | 48 | 136 |  | 
31 | COc1ccc(NC(=O)NCc2ccncc2OCCCN(C)C)cc1OCCCC(C)C [Compound C5INH-0402] | 261 | 1340 |  | 
32 | COc1ccc(NC(=O)NCc2ccnc(N3CCCC(O)C3)c2)cc1OCCCC(C)C (centres unmarked) [Compound C5INH-0403] | 220 | 2990 |  | 
33 | COc1ccc(NC(=O)N[C@H](CO)c2ccccc2)cc1C(F)C(F)CCC(C)C (some centres unmarked) [Compound C5INH-0406] | 760 | 683 |  | 
34 | COc1ccc(NC(=O)NCc2ccnc3c2ccn3CCNS(C)(=O)=O)cc1OCCCC(C)C [Compound C5INH-0409] | 110 | 477 |  | 
35 | CCS(=O)(=O)NCCn1ccc2c(CNC(=O)Nc3ccc(OC)c(OCCCC(C)C)c3)ccnc21 [Compound C5INH-0410] | 840 | 568 |  | 
36 | COc1ccc(NC(=O)NCc2ccc3c(ccn3CCN(C)C)c2)cc1OCCCC(C)C [Compound C5INH-0414] | 500 | 781 |  | 
37 | COc1ccc(NC(=O)NCc2ncccc2OC)cc1OCCCC(C)C [Compound C5INH-0417] | 693 | 1130 |  | 
38 | COc1ccc(NC(=O)NCc2ccc(N3CCN(C)CC3)cc2)cc1OCCCC(C)C [Compound C5INH-0420] | 800 | 403 |  | 
39 | COc1ccc(NC(=O)NCc2ccc(CN3CCOCC3)cc2)cc1OCCCC(C)C [Compound C5INH-0421] | 1660 | 4590 |  | 
40 | COc1cc(CC(N)=O)c(NC(=O)N[C@@H](CO)c2ccccc2)cc1OCCCC(C)C [Compound C5INH-0422] | 1340 | 1370 |  | 
41 | COc1ccc(NC(=O)NCc2ccc(N)nc2)cc1OCCCC(C)C [Compound C5INH-0428] | 530 | 3060 |  | 
42 | CC(C)CCCOc1cc(NC(=O)N[C@@H](CO)c2ccccc2)ccc1N [Compound C5INH-0431] | 1160 | 3790 |  | 

Row | Compound | Kd (Human C5; [1]) [nM] | IC50 (purified human C5; [2]) [nM] | Kd (Human C5; [3]) [nM] | IC50 (purified human C5; [4]) [nM]
43 | COc1ccc(NC(=O)N[C@@H](CO)c2ccccc2)cc1C(F)CCCC(C)C (some centres unmarked) [Compound C5INH-0432] | 530 | 417 |  | 
44 | COc1ccc(NC(=O)NCc2ccnc3c2ccn3C(C)=O)cc1OCCCC(C)C [Compound C5INH-0436] | 510 | 1700 |  | 
45 | COc1ccc(NC(=O)NCc2cccc3c2ccn3CCN2CCOCC2)cc1OCCCC(C)C [Compound C5INH-0437] | 37 | 81.5 |  | 
46 | COc1ccc(NC(=O)N(CCN2CCOCC2)Cc2cccc3c2ccn3CCN2CCOCC2)cc1OCCCC(C)C [Compound C5INH-0438] | 2780 | 3000 |  | 
47 | COc1cc(CC(=O)N(C)C)c(NC(=O)N[C@@H](CO)c2ccccc2)cc1OCCCC(C)C [Compound C5INH-0440] | 7600 | 3160 |  | 
48 | CNc1ccc(CNC(=O)Nc2ccc(OC)c(OCCCC(C)C)c2)cc1 [Compound C5INH-0443] | 300 | 1990 |  | 
49 | COc1ccc(NC(=O)NCc2ccc(N(C)CC(N)=O)cc2)cc1OCCCC(C)C [Compound C5INH-0446] | 184 | 2710 |  | 
50 | COc1ccc(NC(=O)NCc2ccc3c(ccn3CC(=O)N(C)C)c2)cc1OCCCC(C)C [Compound C5INH-0447] | 204 | 536 |  | 
51 | COc1ccc(NC(=O)NCc2cccc3cccnc23)cc1OCCCC(C)C [Compound C5INH-0450] | 885 | 298 |  | 
52 | COc1ccc(NC(=O)NCc2ccnc(NCCN3CCOCC3)c2OC)cc1OCCCC(C)C [Compound C5INH-0452] | 59 | 95.5 |  | 
53 | COc1ccc(NC(=O)NCc2ccnc(NCCN(C)C)c2OC)cc1OCCCC(C)C [Compound C5INH-0453] | 25 | 65.5 |  | 
54 | COc1ccc(NC(=O)NCc2ccnc(N)c2OC)cc1OCCCC(C)C [Compound C5INH-0454] | 284 | 301 |  | 
55 | COc1ccc(NC(=O)NCc2cccc(OC)c2O)cc1OCCCC(C)C [Compound C5INH-0456] | 29 |  |  | 7
56 | COc1ccc(NC(=O)NCc2ccc3c(N)n[nH]c3c2)cc1OCCCC(C)C [Compound C5INH-0458] | 225 | 416 |  | 
57 | COc1ccc(NC(=O)NCc2ccc(Cn3ccnc3)cc2)cc1OCCCC(C)C [Compound C5INH-0460] | 578 | 725 |  | 
58 | COc1ccc(NC(=O)NCc2cccc(OCCN(C)C)c2)cc1OCCCC(C)C [Compound C5INH-0462] | 95 | 113 |  | 
59 | COc1ccc(NC(=O)NC(CO)c2cccc3c2ccn3C)cc1OCCCC(C)C (centres unmarked) [Compound C5INH-0463] | 280 | 808 |  | 
60 | COc1ccc(NC(=O)NCc2cccc(F)c2O)cc1OCCCC(C)C [Compound C5INH-0472] | 82 | 16 |  | < 20
61 | COc1ccc(NC(=O)NCc2cc(F)ccc2O)cc1OCCCC(C)C [Compound C5INH-0473] | 69 | 21.5 |  | 
62 | COc1ccc(NC(=O)NCc2ccnc3c2ccn3CC2=NCCCN2)cc1OCCCC(C)C [Compound C5INH-0474] | 201 | 120 |  | 
